How the values were obtained:
Assay in all cases: Free Choice Kinase Assay Projects, Flashplate
AURKA (human) = AURKA (human) (UniProt O14965); conditions: compound 10.0 µM; ATP 10 µM
PTK2 (human) = PTK2 (human) (UniProt Q05397); conditions: compound 10.0 µM; ATP 1 µM
AURKB (human) = AURKB (human) (UniProt Q96GD4); conditions: compound 10.0 µM; ATP 10 µM
CSNK2A1 (human) = CSNK2A1 (human) (UniProt P68400); conditions: compound 10.0 µM; ATP 0.1 µM
TEK (human) = TEK (human) (UniProt Q02763); conditions: compound 10.0 µM; ATP 1 µM
MET (human) = MET (human) (UniProt P08581); conditions: compound 10.0 µM; ATP 0.3 µM
MAP3K8 (human) = MAP3K8 (human) (UniProt P41279); conditions: compound 10.0 µM; ATP 3 µM
PLK1 (human) = PLK1 (human) (UniProt P53350); conditions: compound 10.0 µM; ATP 1 µM
PDGFRB (human) = PDGFRB (human) (UniProt P09619); conditions: compound 10.0 µM; ATP 0.3 µM
AKT1 (human) = AKT1 (human) (UniProt P31749); conditions: compound 10.0 µM; ATP 3 µM
EGFR (human) = EGFR (human) (UniProt P00533); conditions: compound 10.0 µM; ATP 0.3 µM
MAPK10 (human) = MAPK10 (human) (UniProt P53779); conditions: compound 10.0 µM; ATP 0.3 µM
IGF1R (human) = IGF1R (human) (UniProt P08069); conditions: compound 10.0 µM; ATP 1 µM
KDR (human) = KDR (human) (UniProt P35968); conditions: compound 10.0 µM; ATP 1 µM
CDK2 CCNA2 (human) = CDK2 CCNA2 (human) (UniProt P24941+P20248); conditions: compound 10.0 µM; ATP 0.3 µM
CDK4 CCND1 (human) = CDK4 CCND1 (human) (UniProt P11802+P24385); conditions: compound 10.0 µM; ATP 3 µM
NUAK1 (human) = NUAK1 (human) (UniProt O60285); conditions: compound 10.0 µM; ATP 1 µM
MAPK14 (human) = MAPK14 (human) (UniProt Q16539); conditions: compound 10.0 µM; ATP 1 µM
SRC (human) = SRC (human) (UniProt P12931); conditions: compound 10.0 µM; ATP 0.3 µM
EPHB4 (human) = EPHB4 (human) (UniProt P54760); conditions: compound 10.0 µM; ATP 1 µM
ERBB2 (human) = ERBB2 (human) (UniProt P04626); conditions: compound 10.0 µM; ATP 1 µM
AXL (human) = AXL (human) (UniProt P30530); conditions: compound 10.0 µM; ATP 0.3 µM
PLK4 (human) = PLK4 (human) (UniProt O00444); conditions: compound 10.0 µM; ATP 0.3 µM
Sequence of PLK4 (human) (O00444 whole entry, looked up): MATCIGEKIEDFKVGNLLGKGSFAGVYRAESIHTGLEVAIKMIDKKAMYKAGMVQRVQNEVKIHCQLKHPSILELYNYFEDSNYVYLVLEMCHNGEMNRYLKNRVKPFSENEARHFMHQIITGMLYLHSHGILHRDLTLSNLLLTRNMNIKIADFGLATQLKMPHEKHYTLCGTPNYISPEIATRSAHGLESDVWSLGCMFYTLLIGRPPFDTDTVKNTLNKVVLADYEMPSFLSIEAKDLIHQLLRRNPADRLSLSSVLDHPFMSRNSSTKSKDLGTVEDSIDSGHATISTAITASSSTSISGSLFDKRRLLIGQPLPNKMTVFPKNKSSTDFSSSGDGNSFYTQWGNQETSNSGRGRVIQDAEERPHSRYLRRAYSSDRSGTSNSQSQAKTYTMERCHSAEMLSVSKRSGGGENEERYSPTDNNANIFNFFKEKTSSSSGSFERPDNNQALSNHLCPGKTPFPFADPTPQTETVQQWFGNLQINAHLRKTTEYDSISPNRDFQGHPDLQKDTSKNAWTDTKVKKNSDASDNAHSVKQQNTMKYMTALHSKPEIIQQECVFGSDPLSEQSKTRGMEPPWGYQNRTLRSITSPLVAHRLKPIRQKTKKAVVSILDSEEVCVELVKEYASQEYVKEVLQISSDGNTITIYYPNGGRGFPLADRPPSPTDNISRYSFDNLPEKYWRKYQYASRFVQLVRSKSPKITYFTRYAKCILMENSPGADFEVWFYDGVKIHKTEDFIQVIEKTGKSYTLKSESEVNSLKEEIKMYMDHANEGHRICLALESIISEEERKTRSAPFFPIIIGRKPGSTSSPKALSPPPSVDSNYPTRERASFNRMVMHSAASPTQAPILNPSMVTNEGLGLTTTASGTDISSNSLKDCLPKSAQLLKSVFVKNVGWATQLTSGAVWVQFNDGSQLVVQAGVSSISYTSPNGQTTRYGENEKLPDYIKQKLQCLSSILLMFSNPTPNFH

Sequence of AKT1 (human) (P31749 whole entry, looked up): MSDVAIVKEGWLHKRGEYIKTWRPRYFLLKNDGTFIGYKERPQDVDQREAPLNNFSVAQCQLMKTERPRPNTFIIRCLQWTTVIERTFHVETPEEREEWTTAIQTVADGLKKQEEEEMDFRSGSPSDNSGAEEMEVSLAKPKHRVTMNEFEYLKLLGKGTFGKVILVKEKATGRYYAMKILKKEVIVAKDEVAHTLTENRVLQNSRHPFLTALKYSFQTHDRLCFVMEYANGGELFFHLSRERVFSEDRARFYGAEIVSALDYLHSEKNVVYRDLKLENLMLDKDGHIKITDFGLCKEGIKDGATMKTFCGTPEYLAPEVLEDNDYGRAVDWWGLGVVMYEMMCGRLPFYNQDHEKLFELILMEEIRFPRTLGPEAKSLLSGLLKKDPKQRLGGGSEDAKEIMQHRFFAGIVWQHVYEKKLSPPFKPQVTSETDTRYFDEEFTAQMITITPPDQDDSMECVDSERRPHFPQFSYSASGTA
Sequence of CDK4 CCND1 (human) (P11802 whole entry, looked up): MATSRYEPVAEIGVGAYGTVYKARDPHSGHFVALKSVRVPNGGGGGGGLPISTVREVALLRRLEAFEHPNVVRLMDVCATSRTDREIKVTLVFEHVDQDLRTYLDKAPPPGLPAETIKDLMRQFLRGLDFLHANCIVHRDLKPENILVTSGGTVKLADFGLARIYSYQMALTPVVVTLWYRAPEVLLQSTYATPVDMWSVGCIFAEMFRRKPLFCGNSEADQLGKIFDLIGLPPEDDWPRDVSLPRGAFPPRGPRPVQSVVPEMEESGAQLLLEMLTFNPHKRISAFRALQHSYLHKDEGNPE
Sequence of CDK4 CCND1 (human) (P24385 whole entry, looked up): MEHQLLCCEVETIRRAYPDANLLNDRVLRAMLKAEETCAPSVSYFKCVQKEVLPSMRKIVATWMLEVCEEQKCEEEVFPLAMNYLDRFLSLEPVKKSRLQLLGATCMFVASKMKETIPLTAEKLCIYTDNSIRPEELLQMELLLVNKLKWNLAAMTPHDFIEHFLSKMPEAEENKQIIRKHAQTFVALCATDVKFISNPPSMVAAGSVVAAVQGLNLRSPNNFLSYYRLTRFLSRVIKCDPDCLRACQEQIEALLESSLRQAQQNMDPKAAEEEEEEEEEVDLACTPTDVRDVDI
Sequence of ERBB2 (human) (P04626 whole entry, looked up): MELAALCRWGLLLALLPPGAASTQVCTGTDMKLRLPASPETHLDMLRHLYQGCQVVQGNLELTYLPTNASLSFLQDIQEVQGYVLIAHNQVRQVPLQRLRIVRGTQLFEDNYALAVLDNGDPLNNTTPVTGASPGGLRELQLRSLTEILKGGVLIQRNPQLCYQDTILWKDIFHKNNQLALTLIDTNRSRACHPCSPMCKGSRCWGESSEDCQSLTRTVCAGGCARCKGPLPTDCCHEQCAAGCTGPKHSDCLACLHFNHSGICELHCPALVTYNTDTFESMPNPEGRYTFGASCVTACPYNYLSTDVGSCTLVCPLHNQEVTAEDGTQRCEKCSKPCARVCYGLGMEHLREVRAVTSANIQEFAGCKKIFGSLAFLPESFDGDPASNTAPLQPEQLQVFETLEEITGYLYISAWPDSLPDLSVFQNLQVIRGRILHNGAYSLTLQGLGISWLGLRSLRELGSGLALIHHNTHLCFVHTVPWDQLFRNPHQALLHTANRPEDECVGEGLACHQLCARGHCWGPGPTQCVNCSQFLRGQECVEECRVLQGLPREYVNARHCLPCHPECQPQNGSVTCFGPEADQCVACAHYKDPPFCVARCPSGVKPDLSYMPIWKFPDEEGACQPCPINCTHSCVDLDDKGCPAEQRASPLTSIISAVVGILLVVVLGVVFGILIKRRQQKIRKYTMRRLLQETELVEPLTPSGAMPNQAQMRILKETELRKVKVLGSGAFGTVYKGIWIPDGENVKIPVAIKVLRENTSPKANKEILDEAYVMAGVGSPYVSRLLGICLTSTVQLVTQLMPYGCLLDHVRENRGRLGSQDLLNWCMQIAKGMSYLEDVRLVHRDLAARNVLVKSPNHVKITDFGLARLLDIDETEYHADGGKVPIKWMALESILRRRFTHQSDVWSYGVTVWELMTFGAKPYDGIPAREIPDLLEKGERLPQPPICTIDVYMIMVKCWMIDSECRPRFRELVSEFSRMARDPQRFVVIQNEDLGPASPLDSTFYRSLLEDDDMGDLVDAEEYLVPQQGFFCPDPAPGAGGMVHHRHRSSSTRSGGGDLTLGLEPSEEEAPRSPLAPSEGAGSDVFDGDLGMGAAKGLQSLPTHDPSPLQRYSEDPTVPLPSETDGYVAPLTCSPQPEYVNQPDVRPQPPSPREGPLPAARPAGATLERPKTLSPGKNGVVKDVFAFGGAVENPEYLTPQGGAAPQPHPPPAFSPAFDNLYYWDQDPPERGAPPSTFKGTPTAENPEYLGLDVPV
Sequence of MAPK14 (human) (Q16539 whole entry, looked up): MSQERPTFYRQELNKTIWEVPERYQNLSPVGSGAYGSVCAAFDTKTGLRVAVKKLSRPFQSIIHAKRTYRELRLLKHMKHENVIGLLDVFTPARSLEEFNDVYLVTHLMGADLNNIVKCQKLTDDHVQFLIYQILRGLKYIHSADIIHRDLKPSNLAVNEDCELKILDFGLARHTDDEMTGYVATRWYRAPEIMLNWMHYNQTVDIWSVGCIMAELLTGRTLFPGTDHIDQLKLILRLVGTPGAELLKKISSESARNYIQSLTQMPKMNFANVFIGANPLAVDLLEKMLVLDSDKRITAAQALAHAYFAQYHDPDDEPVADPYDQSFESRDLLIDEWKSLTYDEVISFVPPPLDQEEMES
Sequence of PTK2 (human) (Q05397 whole entry, looked up): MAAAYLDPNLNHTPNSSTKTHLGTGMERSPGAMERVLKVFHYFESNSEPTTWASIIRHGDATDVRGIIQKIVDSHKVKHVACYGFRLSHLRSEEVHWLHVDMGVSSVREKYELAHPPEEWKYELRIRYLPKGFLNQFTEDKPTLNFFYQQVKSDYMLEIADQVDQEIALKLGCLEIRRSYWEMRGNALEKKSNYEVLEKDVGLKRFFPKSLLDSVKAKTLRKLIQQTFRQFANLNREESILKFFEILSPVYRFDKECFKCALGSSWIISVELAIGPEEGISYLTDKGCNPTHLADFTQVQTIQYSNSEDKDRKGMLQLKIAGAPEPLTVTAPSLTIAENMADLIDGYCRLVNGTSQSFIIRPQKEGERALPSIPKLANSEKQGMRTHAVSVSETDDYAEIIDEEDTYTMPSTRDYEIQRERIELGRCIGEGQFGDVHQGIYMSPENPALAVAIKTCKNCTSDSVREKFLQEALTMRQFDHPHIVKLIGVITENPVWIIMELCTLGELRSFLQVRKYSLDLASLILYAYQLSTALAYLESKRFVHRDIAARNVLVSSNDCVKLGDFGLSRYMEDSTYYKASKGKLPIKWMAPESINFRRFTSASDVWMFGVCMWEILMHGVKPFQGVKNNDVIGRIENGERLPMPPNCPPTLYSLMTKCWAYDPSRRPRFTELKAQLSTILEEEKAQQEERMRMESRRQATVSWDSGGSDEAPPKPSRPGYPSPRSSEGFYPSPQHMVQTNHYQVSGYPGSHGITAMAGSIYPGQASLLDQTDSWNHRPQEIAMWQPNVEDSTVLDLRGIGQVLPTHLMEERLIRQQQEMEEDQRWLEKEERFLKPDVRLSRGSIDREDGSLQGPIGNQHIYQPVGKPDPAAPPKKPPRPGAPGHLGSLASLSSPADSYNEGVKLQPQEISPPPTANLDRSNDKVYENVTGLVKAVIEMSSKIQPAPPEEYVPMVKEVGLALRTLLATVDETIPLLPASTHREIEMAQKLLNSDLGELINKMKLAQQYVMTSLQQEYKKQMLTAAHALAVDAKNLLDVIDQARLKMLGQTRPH

Structure (SMILES)	residual activity (AURKA (human))	residual activity (PTK2 (human))	residual activity (AURKB (human))	residual activity (CSNK2A1 (human))	residual activity (TEK (human))	residual activity (MET (human))	residual activity (MAP3K8 (human))	residual activity (PLK1 (human))	residual activity (PDGFRB (human))	residual activity (AKT1 (human))	residual activity (EGFR (human))	residual activity (MAPK10 (human))	residual activity (IGF1R (human))	residual activity (KDR (human))	residual activity (CDK2 CCNA2 (human))	residual activity (CDK4 CCND1 (human))	residual activity (NUAK1 (human))	residual activity (MAPK14 (human))	residual activity (SRC (human))	residual activity (EPHB4 (human))	other results
Fc1ccc(-c2[nH]c(SCc3cccc4ccccc34)nc2-c2ccncc2)cc1	54%	124%	57%	77%	11%	40%	46%	46%	39%	60%	8%	17%	17%	24%	20%	44%	53%	3%	8%	21%	residual activity (ERBB2 (human)): 9%; residual activity (AXL (human)): 59%; residual activity (PLK4 (human)): 9%
Fc1ccc(-c2[nH]c(SCc3ccccc3)nc2-c2ccnc(F)c2)cc1	93%	90%	85%	86%	34%	76%	106%	131%	70%	155%	17%	88%	41%	32%	71%	109%	127%	7%	18%	77%	residual activity (ERBB2 (human)): 9%; residual activity (AXL (human)): 75%; residual activity (PLK4 (human)): 128%
CSc1ccc(CSc2nc(-c3ccncc3)c(-c3ccc(F)cc3)[nH]2)cc1	79%	130%	71%	76%	21%	51%	75%	115%	53%	100%	36%	72%	23%	33%	42%	84%	122%	16%	20%	40%	residual activity (ERBB2 (human)): 25%; residual activity (AXL (human)): 65%; residual activity (PLK4 (human)): 21%
CSc1ccccc1CSc1nc(-c2ccncc2)c(-c2ccc(F)cc2)[nH]1	80%	98%	79%	83%	48%	76%	85%	82%	85%	137%	30%	58%	60%	51%	66%	89%	95%	10%	29%	52%	residual activity (ERBB2 (human)): 29%; residual activity (AXL (human)): 85%; residual activity (PLK4 (human)): 59%
On1c(/C=C/c2ccccc2)nc(-c2ccncc2)c1-c1ccc(F)cc1	18%	65%	18%	68%	5%	23%	48%	51%	31%	76%	1%	9%	13%	9%	20%	21%	51%	3%	5%	19%	residual activity (ERBB2 (human)): 4%; residual activity (AXL (human)): 42%; residual activity (PLK4 (human)): 7%
Fc1ccc(-c2[nH]c(SCC3CCCCC3)nc2-c2ccncc2)cc1	46%	106%	80%	86%	36%	73%	73%	83%	81%	56%	24%	63%	22%	48%	74%	44%	91%	23%	38%	38%	residual activity (ERBB2 (human)): 46%; residual activity (AXL (human)): 63%; residual activity (PLK4 (human)): 34%
Fc1ccc(-c2[nH]c(/C=C/c3ccccc3)nc2-c2ccncc2)cc1	38%	82%	32%	73%	6%	25%	35%	39%	34%	75%	2%	11%	16%	17%	32%	36%	45%	0%	8%	21%	residual activity (ERBB2 (human)): 3%; residual activity (AXL (human)): 61%; residual activity (PLK4 (human)): 5%
N#CCSc1nc(-c2ccncc2)c(-c2ccc(F)cc2)[nH]1	53%	71%	66%	93%	10%	45%	101%	86%	16%	110%	2%	12%	68%	3%	90%	102%	106%	1%	8%	18%	residual activity (ERBB2 (human)): 2%; residual activity (AXL (human)): 80%; residual activity (PLK4 (human)): 57%
Fc1ccc(-c2[nH]c(SCc3ccccc3)nc2-c2ccnc(Cl)c2)cc1	62%	120%	47%	95%	16%	53%	58%	60%	44%	75%	7%	57%	42%	38%	43%	48%	71%	9%	17%	42%	residual activity (ERBB2 (human)): 9%; residual activity (AXL (human)): 62%; residual activity (PLK4 (human)): 24%
COc1ccc(C(=O)Nc2cc(-c3nc(SC)n(C)c3-c3ccc(F)cc3)ccn2)cc1	97%	131%	87%	72%	21%	52%	87%	81%	48%	113%	7%	18%	23%	8%	37%	76%	95%	3%	9%	33%	residual activity (ERBB2 (human)): 17%; residual activity (AXL (human)): 54%; residual activity (PLK4 (human)): 20%
